Measurements from US20060183105A1, “Human brain-derived tissue-specific potassium channel” (priority 1997, published 2006).

Assays:
[1] = system: SN56 cells; conditions: attenuation of the potassium current; cited from earlier work
[2] = target: T1, human brain-derived potassium channel subunit SEQ ID NO:3 (hKvQT2) (Homo sapiens, UniProt O43526, N780T); assay: cell-based
T1 construct: EGFP (Enhanced Green Fluorescent Protein), from pEGFPC1; expressed in transfected cells; host or cells: COS-7 and HEK 293 cells, transient transfection
Method: transfection: HEK293 cells (ATCC, Rockville, Md.) were transfected as follows: 70 ul LipoTAXI (Stratagene, La Jolla, Calif.) was added to a polystyrene tube and gently mixed. Two (2) ug pEFGPC1 (control vector used to trace the transfected cells) and 5 ug of one of the constructs (SEQ ID NO:2 in pcDNA3 or SEQ ID NO:4 in pcDNA3) was added to the lipid/media mixture and incubated for 20 minutes. Two (2)mls of OPTI-MEM I was then added and mixed gently. Cells to be transfected were washed once with OPTI-MEM I, and the 3 ml of lipid-DNA mixture were added to the washed cells and incubated at 37° C. 5% CO2 for 4-6 hours. Cells were then refed with 10% Heat Inactivated FBS (Biowhittaker, Walkersville, Md.) DMEM (Mediatech 10-017-CV). For co-expression experiments, 2 ug pEGFPC1(control vector), 5 ug of pcDNA3QT2L ((SEQ ID NO:2 in pcDNA3) and 20 ug pcDNA3QT2S (SEQ ID NO:4 in pcDNA3) were used in this protocol. Cells were diluted and replated onto 35 mm dishes 24-48 hours prior to patch clamping.
COS-7 cells (ATCC, Rockville Md.) were transfected as follows: 25 ul DMRIE-C Reagent (Gibco BRL/Life Technologies, Gaithersburg, Md.) were added to 2 ml of OPTI-MEM I (Gibco BRL/Life Technologies, Gaithersburg, Md.), mixed gently and incubated for 20 minuets. Two (2) ug pEGPPC1QT2L (EGFP fused to the N-terminus of SEQ ID NO:2) and 7.3 ug pcDNA3 or 9.3 ug pcDNA3QT2S (SEQ ID NO:4 in pcDNA3) (for a 5 molar excess over hKvQT2L (SEQ ID NO:2) construct) were added to lipid/media mixture, mixed gently and incubated for 20 minutes. Two (2) mls of OPTI-MEM I was then added to this and mixed gently. Cells to be transfected were washed once with OPTI-MEM I, and the 4 ml of lipid-DNA mixture were added to the washed cells and incubated at 37° C. 5% CO2 for 4-6 hours. Cells were then refed with 10% Heat Inactivated FBS (Biowhittaker, Walkersville, Md.) DMEM (Mediatech 10-017-CV). Cells were trypsinized, diluted and replated onto 35 mm dishes 24-48 hours prior to patch clamping.
electrophysiology: All recordings were obtained using the conventional whole cell configuration (Hammill, O. P., et al., Pfluger Arch., 391, 85-100, 1981). Cells were transfected with 5 ug pcDNA3 or 2 ug pEGFPQT2L (EGFP fused to the N-terminus of SEQ ID NO:2) 24-48 hours prior to experiments. Extracellular solution was (mM): 160 NaCl, 4.5 KCl, 1 MgC2, 2 CaCl2, 5 HEPES, 5 glucose (pH: 7.4 by NaOH, ˜325 mOsm). In K+ selectivity experiments, equimolar Na^+ was substituted by K^+. Pipette solution was (mM): 150 K-aspartate, 2 MgCl2, 1 CaCl2, 5 HEPES, 1.6 EGTA (pH: 7.2 by KOH, ˜305 mOsm). Voltage protocols were implemented and data acquired using pClamp 6.0 software (Axon Instr., CA). Solution changes and drug application with a local perfusion system.

[3] = target: hKQT2 and hKQT3 (Homo sapiens, UniProt O43525+O43526); conditions: co-expression in oocytes, current mimics native M-currents; cited from earlier work
[4] = system: mouse neocortical neurons; conditions: cited from earlier work; for induction of apoptosis on exposure: neurons, exposure to the K+ ionophore or K+-channel opener

T1 sequence (O43526 1-854 isoform O43526-2 N762T): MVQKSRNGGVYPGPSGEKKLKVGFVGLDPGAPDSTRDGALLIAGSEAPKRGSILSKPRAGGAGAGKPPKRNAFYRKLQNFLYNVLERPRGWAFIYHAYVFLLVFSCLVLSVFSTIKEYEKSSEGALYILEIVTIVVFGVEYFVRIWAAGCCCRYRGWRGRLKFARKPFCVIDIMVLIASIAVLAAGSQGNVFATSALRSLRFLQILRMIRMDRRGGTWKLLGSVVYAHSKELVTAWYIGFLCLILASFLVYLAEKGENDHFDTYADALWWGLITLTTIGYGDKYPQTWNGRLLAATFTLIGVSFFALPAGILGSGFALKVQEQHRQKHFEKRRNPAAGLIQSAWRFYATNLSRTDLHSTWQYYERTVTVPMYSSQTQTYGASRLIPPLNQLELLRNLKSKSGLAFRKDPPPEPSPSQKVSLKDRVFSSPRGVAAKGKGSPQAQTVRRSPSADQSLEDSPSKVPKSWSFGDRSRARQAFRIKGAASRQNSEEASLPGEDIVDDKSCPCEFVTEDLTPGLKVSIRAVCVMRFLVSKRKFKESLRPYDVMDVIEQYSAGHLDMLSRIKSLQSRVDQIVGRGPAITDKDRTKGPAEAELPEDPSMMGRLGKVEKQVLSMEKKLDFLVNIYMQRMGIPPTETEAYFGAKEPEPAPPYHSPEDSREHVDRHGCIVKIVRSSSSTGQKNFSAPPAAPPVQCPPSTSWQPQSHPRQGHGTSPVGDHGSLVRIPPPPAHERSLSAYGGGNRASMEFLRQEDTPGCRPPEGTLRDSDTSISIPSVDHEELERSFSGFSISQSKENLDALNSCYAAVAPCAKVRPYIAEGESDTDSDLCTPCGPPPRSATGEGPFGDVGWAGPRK
Sequence of hKQT2 and hKQT3 (O43526 whole entry): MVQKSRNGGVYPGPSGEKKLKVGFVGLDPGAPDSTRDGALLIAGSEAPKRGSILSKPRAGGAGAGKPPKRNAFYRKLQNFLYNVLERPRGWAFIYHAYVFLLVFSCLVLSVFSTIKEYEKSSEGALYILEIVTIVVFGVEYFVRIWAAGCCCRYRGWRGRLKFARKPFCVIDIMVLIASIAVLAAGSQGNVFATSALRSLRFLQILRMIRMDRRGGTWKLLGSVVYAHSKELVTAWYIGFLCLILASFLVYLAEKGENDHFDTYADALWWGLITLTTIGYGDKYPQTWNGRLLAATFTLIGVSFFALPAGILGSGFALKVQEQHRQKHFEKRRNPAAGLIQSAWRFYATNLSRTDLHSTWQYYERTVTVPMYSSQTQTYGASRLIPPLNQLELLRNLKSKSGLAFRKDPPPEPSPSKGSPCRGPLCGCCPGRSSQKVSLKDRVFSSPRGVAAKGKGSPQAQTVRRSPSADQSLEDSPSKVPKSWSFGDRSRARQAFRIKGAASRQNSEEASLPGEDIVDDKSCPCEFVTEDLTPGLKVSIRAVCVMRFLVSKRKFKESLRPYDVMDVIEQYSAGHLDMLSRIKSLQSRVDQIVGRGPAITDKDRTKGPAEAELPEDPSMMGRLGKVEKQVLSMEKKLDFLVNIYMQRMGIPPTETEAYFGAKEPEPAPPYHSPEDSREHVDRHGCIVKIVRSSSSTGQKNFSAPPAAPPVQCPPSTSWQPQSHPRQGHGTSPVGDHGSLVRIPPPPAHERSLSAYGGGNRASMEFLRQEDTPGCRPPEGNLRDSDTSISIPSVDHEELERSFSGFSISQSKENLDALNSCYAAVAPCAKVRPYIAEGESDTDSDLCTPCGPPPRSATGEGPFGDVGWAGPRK
Sequence of hKQT2 and hKQT3 (O43525 whole entry): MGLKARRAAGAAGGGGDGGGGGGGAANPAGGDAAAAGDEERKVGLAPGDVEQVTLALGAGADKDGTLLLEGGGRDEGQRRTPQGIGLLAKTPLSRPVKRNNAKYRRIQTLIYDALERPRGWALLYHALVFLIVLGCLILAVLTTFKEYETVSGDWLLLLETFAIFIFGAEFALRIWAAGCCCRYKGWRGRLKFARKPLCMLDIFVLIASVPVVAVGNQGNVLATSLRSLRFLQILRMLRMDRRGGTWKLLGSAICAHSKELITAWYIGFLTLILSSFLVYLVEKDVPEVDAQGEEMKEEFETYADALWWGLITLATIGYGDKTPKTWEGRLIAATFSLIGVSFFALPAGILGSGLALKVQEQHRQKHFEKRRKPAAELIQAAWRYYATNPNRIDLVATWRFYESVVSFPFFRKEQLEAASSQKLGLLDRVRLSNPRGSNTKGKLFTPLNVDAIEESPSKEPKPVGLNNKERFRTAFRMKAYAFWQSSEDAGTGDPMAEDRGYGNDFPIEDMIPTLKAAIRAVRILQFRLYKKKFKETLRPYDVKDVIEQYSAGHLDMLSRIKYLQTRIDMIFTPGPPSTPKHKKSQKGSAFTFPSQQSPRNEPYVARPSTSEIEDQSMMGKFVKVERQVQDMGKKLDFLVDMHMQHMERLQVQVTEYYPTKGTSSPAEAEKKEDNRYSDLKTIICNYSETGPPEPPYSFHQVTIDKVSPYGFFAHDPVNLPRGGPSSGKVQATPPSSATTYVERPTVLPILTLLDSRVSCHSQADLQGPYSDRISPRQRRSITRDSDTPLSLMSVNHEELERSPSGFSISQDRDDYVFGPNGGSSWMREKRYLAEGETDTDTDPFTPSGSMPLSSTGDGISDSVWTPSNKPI

CC[N+](CC)(CC)CC.[Cl-] [TEA, tetraethylammonium chloride]
effect on Aβ-mediated toxicity [1]: block Aβ-mediated toxicity | IC50 [2]: 130 µM | slope factor of Hill fit, inhibition of SEQ ID NO:3 subunit ([2]; Hill fit to mean data points, FIG. 12D): 0.59 | block of voltage-gated outward currents ([2]; externally applied, mammalian cells transfected with SEQ ID NO:2, FIG. 12D): blocked potently | block of hKQT2/hKQT3 current [3]: block by TEA | effect on apoptosis of mouse neocortical neurons ([4]; apoptosis induced by serum deprivation or staurosporine, attenuating outward K+ current): reduced apoptosis

CC1(C)Oc2ccc(C#N)cc2C(N2CCCC2=O)C1O (centres unmarked) [cromakalim]
induction of neuronal apoptosis ([4]; 24 to 48 hours of exposure): induced typical neuronal apoptosis | induction of apoptosis on exposure [4]: induced apoptosis

CC(C)[C@@H]1NC(=O)[C@H](C)OC(=O)[C@@H](C(C)C)NC(=O)[C@@H](C(C)C)OC(=O)[C@H](C(C)C)NC(=O)[C@H](C)OC(=O)[C@@H](C(C)C)NC(=O)[C@@H](C(C)C)OC(=O)[C@H](C(C)C)NC(=O)[C@H](C)OC(=O)[C@@H](C(C)C)NC(=O)[C@@H](C(C)C)OC1=O [valinomycin]
induction of neuronal apoptosis in cortical cultures ([4]; 20 nM, 24 to 48 hours): induced typical neuronal apoptosis | induction of apoptosis on exposure [4]: induced apoptosis

[Ba+2].[Cl-].[Cl-] [barium]
blocking of hKvQT2 (SEQ ID NO:3) channel ([2]; channel expressed in mammalian cells, properties match M-current): blocking by barium
